{"source": "ChEMBL document CHEMBL2095176", "about": "“GSK Tuberculosis Screening Data”", "data": [{"system": "Mycobacterium tuberculosis variant bovis BCG", "experiment": "microbe, parasite or virus in culture", "format": "functional", "units": {"MIC90": "µM"}, "values": [{"smiles": "Cc1ccc2nc(C(F)(F)F)c(C(=O)NCc3cccs3)n2c1", "MIC90": 1.2}, {"smiles": "Br.CCCc1cc(C(C)=O)ccc1OCCCON1C(=N)N=C(N)NC1(C)C", "MIC90": 8.8}, {"smiles": "CCOc1ccc(-c2nc(-c3ccc(C(F)(F)F)c(O[C@@H]4CCN(C)C4)c3)no2)cc1", "MIC90": 3.2}, {"smiles": "Cc1occc1C(=O)Nc1nc(-c2ccccn2)nc2ccsc12", "MIC90": 1.1}, {"smiles": "COc1ccc2cc(C(=O)Nc3ccc(C4CCN(C)CC4)cc3)sc2c1", "MIC90": 2.9}, {"smiles": "Cc1ccc2nc(NC(=O)c3cc(C)nc4c3c(C)nn4C(C)C)sc2c1", "MIC90": 7.6}, {"smiles": "O=C(NCc1ccccc1)N1CCN(Cc2ccc3c(c2)OCO3)CC1", "MIC90": 4.9}, {"smiles": "Clc1ccc2c(N3CCNCC3)ccnc2c1", "MIC90": 6.5}, {"smiles": "COc1ccc(-c2ccc(Nc3cccc(S(=O)(=O)CCNCc4nccn4C)c3)nc2)cn1", "MIC90": 4.3}, {"smiles": "CN(CCOc1cccc(-c2ccc(C(=O)N3CCCC3)cc2)c1)Cc1ccc(F)cc1", "MIC90": 7.8}, {"smiles": "CC1=NN(C(=O)c2ccco2)C(O)(c2ccccc2)C1", "note": "(stereo not given)", "MIC90": 4.2}, {"smiles": "O=C(Nc1nnc(-c2ccc(F)cc2)o1)c1ccc(Cl)cc1", "MIC90": 6.9}, {"smiles": "CCn1c(-c2nonc2N)nc2c(C#Cc3ccccc3)ncc(OCCCCN)c21", "MIC90": 8.1}, {"smiles": "Cc1ccc(C)c(-c2nnc(NC(=O)c3ccc(Br)s3)o2)c1", "MIC90": 1.6}, {"smiles": "N#Cc1ccc(-c2ccc(OCC(=O)NNC(=O)c3ccco3)cc2)cc1", "MIC90": 2.8}, {"smiles": "CC[C@H]1CN2CC[C@@H]1C[C@H]2[C@H](O)c1cc(-c2cccnc2)nc2ccc(OC)cc12", "MIC90": 8.3}, {"smiles": "CNc1nc(SC)nc2ccsc12", "MIC90": 10}, {"smiles": "Cc1nnc(NCc2cccc(Cl)c2)c2ccccc12", "MIC90": 1.5}, {"smiles": "CS(=O)(=O)c1oc(-c2cccs2)nc1S(=O)(=O)c1ccc(F)cc1", "MIC90": 6.9}, {"smiles": "COc1cc(C(=O)Nc2nc(-c3ccccn3)cs2)ccc1OCC(C)C", "MIC90": 7}, {"smiles": "COc1ccc2nc(C)cc(OCC(=O)Nc3ccccc3OC)c2c1", "MIC90": 1.4}, {"smiles": "CCOC(=O)c1c(-c2ccccc2)oc2ccc(O)c(CN3CCCCC3)c12", "MIC90": 1.4}, {"smiles": "COc1ccc(CCNC(=O)c2nc(-c3ccc(OC)c(OC)c3)no2)cc1OC", "MIC90": 1.5}, {"smiles": "O=C(Nc1nnc(-c2ccc3c(c2)CCCC3)o1)c1ccc(Br)s1", "MIC90": 4.3}, {"smiles": "CC1CC(NC(=O)c2ccc(Oc3ccccc3)cc2)CC(C)(C)C1", "note": "(stereo not given)", "MIC90": 9.5}, {"smiles": "CC(=O)N1CCc2cc3nc(C)cc(C)c3cc21", "MIC90": 3.5}, {"smiles": "O=C(CCCSc1ccccc1)NNC(=O)c1cccs1", "MIC90": 3.6}, {"smiles": "O=C(NC1CCN(Cc2ccccc2)C1)c1cccc(-c2ccc(Cl)cc2)c1", "note": "(stereo not given)", "MIC90": 10}, {"smiles": "CCc1c(C)nc(-n2nc(C)cc2NC(=O)c2cccc3ccccc23)[nH]c1=O", "MIC90": 1.8}, {"smiles": "O=C(Nc1nnc(-c2ccc(F)cc2)o1)c1ccc(C(F)(F)F)cc1", "MIC90": 6}, {"smiles": "Cc1cc(C)c2cc(C#N)c(N3CCCNCC3)nc2c1", "MIC90": 4.3}, {"smiles": "CCc1nn2c(C3CCCNC3)ccnc2c1-c1ccc(OC)cc1", "note": "(stereo not given)", "MIC90": 1.5}, {"smiles": "COc1ccc(-c2cccc(NC(=O)NC3CCCCC3)c2)cn1", "MIC90": 8.8}, {"smiles": "O=C(Nc1nnc(-c2ccccc2)o1)c1ccc(F)cc1", "MIC90": 5.8}, {"smiles": "CN(C)CCCSc1nc(N2CCCC2)c2c(c1C#N)CCCC2", "MIC90": 8.5}, {"smiles": "O=C(COc1ccccc1)N1CCN(c2cnc3ccccc3n2)CC1", "MIC90": 9.3}, {"smiles": "Cc1cc(Cl)cc(C(=O)c2c(C(C)C)c(=O)[nH]c(=O)n2Cc2cc(F)nc(F)c2)c1", "MIC90": 0.4}, {"smiles": "O=C(Nc1nnc(-c2ccc(Cl)s2)o1)c1ccc(Br)s1", "MIC90": 3}, {"smiles": "Cn1c(=O)c(C(=O)NNC(=O)c2cccc(Cl)c2)c(O)c2ccccc21", "MIC90": 5.3}, {"smiles": "CCn1c(-c2ccccc2)nc2c(-c3ccc(C)cc3)ncc(OCCCN)c21", "MIC90": 8.8}, {"smiles": "Cc1ccc(-c2nnc3sc(Cc4cccs4)nn23)cc1", "MIC90": 5.5}, {"smiles": "Cc1ccc(-c2ccc(SCC(=O)Nc3nonc3C)nn2)cc1", "MIC90": 6.8}, {"smiles": "Cc1nc2ccccn2c1C(=O)NCc1ccccc1", "MIC90": 3.4}, {"smiles": "FC(F)(F)c1cc(N2CCCNCC2)c2ccccc2n1", "MIC90": 4.7}, {"smiles": "CC(C)Oc1ccc(NCC(=O)Nc2ccc(F)cc2)cc1", "MIC90": 6.7}, {"smiles": "Cc1ccc(C2(c3ccc(C)cc3)NC(=O)N(CC(=O)N3CCC(Cc4ccccc4)CC3)C2=O)cc1", "MIC90": 6.2}, {"smiles": "COc1ccc(-n2ncc3c(N4CCNCC4)nc(C4CC4)nc32)cc1", "MIC90": 5.6}, {"smiles": "O=C(COc1ccc(Cl)cc1)NNC(=O)c1cccs1", "MIC90": 4.2}, {"smiles": "O=C(NC(Cc1ccccc1)C(=O)Nc1ccccc1N1CCOCC1)c1cccs1", "note": "(stereo not given)", "MIC90": 1.8}, {"smiles": "N[C@H]1CC[C@H](NCc2ccc(O)c(C(=O)NCc3ccc(Cl)c(Cl)c3)c2)CC1", "MIC90": 8.5}, {"smiles": "COCCCNC(=N)c1ccc(NC(=O)c2ccc(C(=O)Nc3ccc(C(=N)NCCCOC)cc3)cc2)cc1", "MIC90": 0.5}, {"smiles": "COc1ccc(S(=O)(=O)CC(=O)N(CCN(C)C)c2nc3c(C)ccc(Cl)c3s2)cc1", "MIC90": 7}, {"smiles": "O=C(Nc1nc(-c2ccccn2)cs1)c1ccc(-c2ccccc2F)o1", "MIC90": 5.2}, {"smiles": "O=C(CSc1nnc(-c2ccccc2)o1)Nc1nc(-c2ccccn2)cs1", "MIC90": 6.6}, {"smiles": "c1ccc(Cc2nn3c(-c4ccccc4)nnc3s2)cc1", "MIC90": 8.2}]}]}
